This is an account of results in ChEMBL document CHEMBL1134659, “Amino acid/spermine conjugates: polyamine amides as potent spermidine uptake inhibitors” (J Med Chem, 2001).

A value given as a limit tells only on which side of the number the result lay.

Common to all, as to type: functional, cell-based
Experiment [1] deals with MDA-MB-231. The experiment is described as follows: In vitro inhibition of [3H]spermidine uptake in MDA-MB-231 (Human breast cancer) cells.
Experiment [2] relates to MDA-MB-231. In words: In vitro inhibition of MDA-MB-231 (Human breast caner) cell growth.
Experiment [3] has as its system MDA-MB-231. The experiment is described as follows: Inhibition of [3H]spermidine transport into MDA-MB-231 (human breast cancer) cells.

With `NCCCNCCCCNCCCNC(=O)[C@@H](N)CCC(N)=O`, affinity in the experiment on MDA-MB-231 [1] was put at a Ki of 177 nM. The concentration giving a half-maximal response (EC50) (usually the concentration at which the effect is half-maximal) with MDA-MB-231 [2] is over 300000 nM.
For `NCCCNCCCCNCCCNC(=O)[C@@H](N)Cc1ccccc1` the same measures were 443 nM and over 100000 nM.
For `CC(C)C[C@H](N)C(=O)NCCCNCCCCNCCCN`, in that order: 46 nM and over 300000 nM.
For `NCCCNCCCCNCCCNC(=O)[C@@H]1CCCN1` the same measures were 38 nM and 93000 nM.
For `C[C@H](N)C(=O)NCCCNCCCCNCCCN`, the Ki (commonly a measure of affinity in units of concentration, obtained from inhibition or displacement) with MDA-MB-231 [1] is 144 nM. Besides, the half-maximal effective concentration (EC50) with MDA-MB-231 [2] is over 300000 nM.
In turn, `NCCCNCCCCNCCCNC(=O)C12CC3CC(CC(C3)C1)C2` returned a Ki in the experiment with MDA-MB-231 [3] of 672 nM.
With `CC(C)[C@H](N)C(=O)NCCCNCCCCNCCCN`, in the experiment with MDA-MB-231 [1], the inhibition constant Ki stood at 84 nM. This compound registered an EC50 in the experiment with MDA-MB-231 [2] of 16000 nM.
For `CC(C)(C)[C@H](N)C(=O)NCCCNCCCCNCCCN` the same measures were 127 nM and 11000 nM.
For `CC(C)(N)C(=O)NCCCNCCCCNCCCN` the same measures were 191 nM and 8000 nM.
For `NCCCNCCCCNCCCNC(=O)[C@@H](N)CO`, in that order: 55 nM and 26000 nM.
`NCCCNCCCCNCCCNC(=O)CC12CC3CC(CC(C3)C1)C2` displayed a Ki with MDA-MB-231 [3] of 256 nM.
In turn, `NCCCNCCCCNCCCNC(=O)[C@@H](N)CCCN` displayed a Ki in the experiment with MDA-MB-231 [1] of 47 nM. In the experiment with MDA-MB-231 [2], this compound registered an EC50 of 3000 nM.
`CC(C)(C)OC(=O)NCCCNCCCCNCCCN`: the inhibition constant Ki in the experiment with MDA-MB-231 [3] is 86 nM.
The compound `NCCCNCCCCNCCCNC(=O)[C@H](N)Cc1c[nH]c2ccccc12` yielded a Ki with MDA-MB-231 [1] of 63 nM. Besides, the half-maximal effective concentration (EC50) with MDA-MB-231 [2] stood at 205000 nM.
Regarding `CC(=O)NCCCNCCCNCCCN`, the Ki in the experiment with MDA-MB-231 [3] was over 1000 nM.
In the experiment with MDA-MB-231 [3], `CCCCCC(=O)NCCCNCCCCNCCCN` showed a Ki of 284 nM.
As for `NCCCNCCCCNCCCNC(=O)[C@@H](N)Cc1c[nH]c2ccccc12`, in the experiment on MDA-MB-231 [1], the affinity, expressed as Ki, was 119 nM. In addition, a half-maximal effect with MDA-MB-231 [2] (EC50) was put at 15000 nM.
For `NCCCNCCCCNCCCNC(=O)[C@@H](N)CC(N)=O`, in that order: 95 nM and 98000 nM.
For `CC(C)[C@@H](N)C(=O)NCCCNCCCCNCCCN`, in that order: 58 nM and 9000 nM.
For the compound `NCCCNCCCCNCCCNC(=O)[C@@H](N)Cc1ccc(O)cc1`, the affinity in the experiment with MDA-MB-231 [1], expressed as Ki, was 116 nM. Moreover, in the experiment on MDA-MB-231 [2], the concentration for a half-maximal effect (EC50) was determined as 95000 nM.
For `NCCCNCCCCNCCCNC(=O)[C@@H](N)CC1CCCCC1` the same measures were 196 nM and 8000 nM.
In the experiment with MDA-MB-231 [1], `C[C@H](O)[C@H](N)C(=O)NCCCNCCCCNCCCN` returned a Ki of 213 nM. In the experiment with MDA-MB-231 [2], this compound registered an EC50 of 6000 nM.
For `NCCCNCCCCNCCCNC(=O)CN` the same measures were 87 nM and over 100000 nM.
For `CCC(C)[C@H](N)C(=O)NCCCNCCCCNCCCN` (stereo partly drawn) the same measures were 150 nM and 9000 nM.
With `NCCCNCCCCNCCCNC(=O)Cc1cccc2ccccc12`, the Ki in the experiment with MDA-MB-231 [3] is 178 nM. This counts as sub-micromolar.
Compound `CSCC[C@H](N)C(=O)NCCCNCCCCNCCCN` displayed a Ki in the experiment on MDA-MB-231 [1] of 65 nM. For the same compound, the 50% effective concentration (EC50) in the experiment with MDA-MB-231 [2] is over 300000 nM.
For `NCCCNCCCCNCCCNC(=O)CCN` the same measures were 65 nM and over 300000 nM.
With `N=C(N)NCCCCCCC(=O)NC(O)C(=O)NCCCCNCCCN` (stereo not drawn), the affinity in the experiment with MDA-MB-231 [3], expressed as Ki, was 81 nM.
Same read-out and setting: in the case of `NCCCNCCCCNCCC(=O)NCCCCCNC(=O)[C@H](CC(N)=O)NC(=O)Cc1ccc(O)cc1O` [JORO SPIDER TOXIN 3] it was 190 nM.
On the same count and under the same terms, in the case of `NCCCCN` [PUTRESCINE] it was 1280 nM; in that of `NCCCCNCCCN` [SPERMIDINE], 113 nM.
On the same count and under the same terms, in the case of `NCCCNCCCCNCCCN` [SPERMINE] it was 280 nM.
